{"source": "paper PMC10299916", "about": "“A multi-enzyme machine polymerizes the Haemophilus influenzae type b capsule” (Nature Chemical Biology, 2023)", "key": {"Bcs1": {"biological_target": "T1, Bcs1 (Haemophilus influenzae, UniProt Q48230)", "T1 construct": "recombinant, E. coli M15; cloned in MBP-S3N10-...-His6 vector", "test": "HPLC-AEC", "type": "biochemical", "details": "5 mM, CTP, Mg2+, pH 8.0, 37 °C"}, "PrsA": {"biological_target": "T2, PrsA (Haemophilus influenzae, UniProt P44328)", "T2 construct": "gene prs; recombinant, E. coli M15; cloned in MBP-S3N10-...-His6 vector", "test": "HPLC-AEC", "type": "biochemical", "details": "Mg2+, pH 8.0, 37 °C"}, "Bcs3": {"biological_target": "T3, Bcs3 (Haemophilus influenzae, UniProt Q2ERG0)", "T3 construct": "full length, 1,215 residues; N-terminal MBP-S3N10 and C-terminal His6 fusion; E. coli M15", "test": "HPLC-AEC and Alcian blue PAGE of polymer formation", "type": "biochemical", "details": "Mg2+, pH 8.0, 37 °C"}, "[1]": {"biological_target": "Bcs3 crystallization construct MBP-Bcs3_(2–1162)-His6 after PreScission digest (Bcs3-His6) (Haemophilus influenzae serotype b (strain ATCC 10211)) (UniProt Q2ERG0)", "test": "crystal structure"}}, "data": [{"molecule": "O=C(CO)[C@H](O)[C@H](O)COP(=O)(O)O", "note": "[ribulose-5-phosphate]", "values": [{"measurement": "HPLC-AEC", "setting": "Bcs1; NADPH", "value": "presence of Bcs1 in a reaction containing ribulose-5-phosphate led to the consumption of NADPH"}]}, {"molecule": "Nc1ncnc2c1ncn2[C@@H]1O[C@H](COP(=O)(O)OP(=O)(O)OP(=O)(O)O)[C@@H](O)[C@H]1O", "note": "[ATP]", "values": [{"measurement": "HPLC-AEC", "setting": "PrsA; ribose-5-phosphate", "value": "(c) PrsA using ATP, CTP or UTP as donor substrate"}]}, {"molecule": "NC(=O)C1=CN([C@@H]2O[C@H](COP(=O)(O)OP(=O)(O)OC[C@H]3O[C@@H](n4cnc5c(N)ncnc54)[C@H](OP(=O)(O)O)[C@@H]3O)[C@@H](O)[C@H]2O)C=CC1", "note": "[NADPH]", "values": [{"measurement": "HPLC-AEC", "setting": "Bcs1; ribulose-5-phosphate", "value": "presence of Bcs1 in a reaction containing ribulose-5-phosphate led to the consumption of NADPH"}]}, {"molecule": "O=P(O)(O)OC[C@H]1OC(O)[C@H](O)[C@@H]1O", "note": "(stereo partly drawn) [D-ribose-5-phosphate]", "values": [{"measurement": "HPLC-AEC", "setting": "PrsA; ATP", "value": "The reaction cascade (e, f) was started with (e) Rib or (f) Rib-5P"}]}, {"molecule": "Nc1ccn([C@@H]2O[C@H](COP(=O)(O)OP(=O)(O)OC[C@@H](O)[C@@H](O)[C@@H](O)CO)[C@@H](O)[C@H]2O)c(=O)n1", "note": "[CDP-ribitol]", "values": [{"measurement": "HPLC-AEC and Alcian blue PAGE of polymer formation", "setting": "Bcs3; generated in situ by RpiA and Bcs1, with PRPP, CroT donor", "value": "CDP-ribitol was only used up in the presence of PRPP, with concomitant production of CMP"}]}, {"molecule": "O=P(O)(O)OC[C@H]1O[C@H](OP(=O)(O)OP(=O)(O)O)[C@H](O)[C@@H]1O", "note": "[PRPP, 5-phospho-α-D-ribose-1-diphosphate]", "values": [{"measurement": "HPLC-AEC and Alcian blue PAGE of polymer formation", "setting": "Bcs3; 5 mM, CDP-ribitol generated in situ by RpiA and Bcs1, CriT donor", "value": "Thus, we concluded that PRPP is the donor substrate for Bcs3."}]}, {"molecule": "Bcs3 crystallization construct MBP-Bcs3_(2–1162)-His6 after PreScission digest (Bcs3-His6) (from UniProt Q2ERG0 2-1162) (enzyme)", "values": [{"measurement": "stoichiometry N", "setting": "[1]", "value": 2}]}]}
